Experimental data published in paper PMC4011845, “Stereoselectivity of Isoflurane in Adhesion Molecule Leukocyte Function-Associated Antigen-1” (PLoS ONE, 2014).

Experiments:
[1] = target: T1, leukocyte function-associated antigen-1 (LFA-1) (Homo sapiens, UniProt P20701); test: cell-free LFA-1:ICAM-1 binding assay ([…] 1-AMA); fluorescence probe on the αL I domain; type: biochemical
T1 construct: gene ITGAL; αL I domain residues 128-307 (fluorescence); with integrin β2 subunit (LFA-1 heterodimer)

[2] = target: T2, leukocyte function-associated antigen-1 (LFA-1) αL I domain (Homo sapiens, UniProt P20701); test: 1-aminoanthracene fluorescence displacement; supported by cell-based ICAM-1 binding inhibition
T2 construct: gene ITGAL; αL I domain wild type, residues 128-307 of the integrin αL subunit
T2 sequence (P20701 153-332): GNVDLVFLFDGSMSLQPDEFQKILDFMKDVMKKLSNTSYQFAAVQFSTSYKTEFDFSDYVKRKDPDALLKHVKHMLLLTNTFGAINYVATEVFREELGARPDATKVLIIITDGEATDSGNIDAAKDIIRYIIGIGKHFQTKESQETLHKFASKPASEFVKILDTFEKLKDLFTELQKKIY

T1 sequence (P20701 26-1090 limits assumed): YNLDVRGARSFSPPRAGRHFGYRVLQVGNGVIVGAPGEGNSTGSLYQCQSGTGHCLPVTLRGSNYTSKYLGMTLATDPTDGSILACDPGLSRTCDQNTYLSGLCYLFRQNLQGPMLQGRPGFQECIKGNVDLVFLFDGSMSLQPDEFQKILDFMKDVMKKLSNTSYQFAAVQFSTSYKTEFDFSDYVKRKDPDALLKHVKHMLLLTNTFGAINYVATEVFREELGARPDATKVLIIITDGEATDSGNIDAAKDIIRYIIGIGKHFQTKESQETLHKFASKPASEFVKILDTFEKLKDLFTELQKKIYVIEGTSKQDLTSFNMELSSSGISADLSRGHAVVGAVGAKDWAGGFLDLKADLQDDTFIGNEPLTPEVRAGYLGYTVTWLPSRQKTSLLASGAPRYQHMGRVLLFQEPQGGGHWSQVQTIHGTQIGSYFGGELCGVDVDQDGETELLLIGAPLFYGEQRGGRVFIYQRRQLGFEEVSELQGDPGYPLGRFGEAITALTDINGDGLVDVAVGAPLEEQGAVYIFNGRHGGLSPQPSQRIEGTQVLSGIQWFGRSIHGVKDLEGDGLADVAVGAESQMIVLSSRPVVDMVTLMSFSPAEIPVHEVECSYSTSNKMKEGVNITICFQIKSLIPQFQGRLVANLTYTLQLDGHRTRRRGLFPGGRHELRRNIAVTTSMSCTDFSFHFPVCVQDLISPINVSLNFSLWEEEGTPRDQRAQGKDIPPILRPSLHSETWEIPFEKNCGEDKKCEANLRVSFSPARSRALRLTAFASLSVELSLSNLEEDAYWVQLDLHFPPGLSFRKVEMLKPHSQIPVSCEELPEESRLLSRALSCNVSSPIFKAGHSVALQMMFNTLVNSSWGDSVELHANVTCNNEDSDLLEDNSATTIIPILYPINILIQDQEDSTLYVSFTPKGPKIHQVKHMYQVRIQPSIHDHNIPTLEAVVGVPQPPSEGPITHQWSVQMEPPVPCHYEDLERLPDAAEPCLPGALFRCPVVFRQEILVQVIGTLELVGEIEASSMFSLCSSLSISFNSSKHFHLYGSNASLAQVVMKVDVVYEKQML
T1 sequence (P05107 23-700 partner limits assumed): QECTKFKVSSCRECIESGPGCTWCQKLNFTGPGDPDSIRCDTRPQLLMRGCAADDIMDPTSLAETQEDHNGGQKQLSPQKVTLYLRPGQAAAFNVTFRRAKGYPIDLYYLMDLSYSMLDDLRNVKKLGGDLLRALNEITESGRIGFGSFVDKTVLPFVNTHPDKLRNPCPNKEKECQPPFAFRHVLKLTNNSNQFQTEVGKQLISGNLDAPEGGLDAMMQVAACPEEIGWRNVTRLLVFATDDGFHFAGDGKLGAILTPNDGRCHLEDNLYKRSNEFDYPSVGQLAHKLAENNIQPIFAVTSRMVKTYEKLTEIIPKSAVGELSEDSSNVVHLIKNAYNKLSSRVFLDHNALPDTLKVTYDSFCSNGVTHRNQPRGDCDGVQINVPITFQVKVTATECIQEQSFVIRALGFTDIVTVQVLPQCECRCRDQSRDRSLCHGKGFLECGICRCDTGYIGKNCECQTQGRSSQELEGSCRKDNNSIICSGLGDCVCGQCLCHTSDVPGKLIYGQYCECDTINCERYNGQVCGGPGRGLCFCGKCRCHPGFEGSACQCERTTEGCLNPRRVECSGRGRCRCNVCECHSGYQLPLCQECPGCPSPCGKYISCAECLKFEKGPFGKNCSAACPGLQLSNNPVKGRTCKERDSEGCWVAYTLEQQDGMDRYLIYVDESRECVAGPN

Row | SMILES | cell-free LFA-1:ICAM-1 binding assay (10-25 μM 1-AMA); fluorescence probe on the [1] | Kd [2]
1 | Nc1cccc2cc3ccccc3cc12 [1-AMA, 1-aminoanthracene] | As shown in Figure 2A , 1-AMA inhibited the binding of LFA-1 to its ligand ICAM-1. | –
2 | FC(F)OC(Cl)C(F)(F)F (centres unmarked) [S-isoflurane] | – | 375 µM
